What all share (type): in vivo
In series [1] the test system is barnyard grass (Echinochloa crus-galli Beauv.). Put plainly: Test Example 1: herbicidal effect on paddy field weeds before emergence. The note with it: Dosage 5 kg/ha. In short, it runs like this:
(§1)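 Grading reflects percent control relative to untreated plots, evaluated three weeks post-application. Treatment was a soil application of compound solution, predetermined dose, made to paddy-state pots before weed seeds germinated.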

For series [2], the system named is bulrush (Scirpus juncoides Roxb.). The series is described as above. Conditions: Dosage 5 kg/ha. The gist of the method: as §1
The test system of series [3] is cleavers (Galium aparine L.), Ga. The series is described as follows: Test Example 3: herbicidal effect on upland weeds before emergence. The note with it: dosage 5 kg/ha. In short, it runs like this: (§2)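 Steps: sow upland weed seeds; spray liquid formulation of active ingredient at prescribed concentration prior to emergence; after 14 days, calculate weed-killing rate; judge herbicidal effect.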

Series [4] deals with barnyard grass (Echinochloa crus-galli Beauv.), Ec. The series is described as above. The note with it: dosage 5 kg/ha. The gist of the method:
as §2

In series [5] the test system is bird's eye speedwell (Veronica persica Poir.), Vp. Described as above. Conditions: dosage 5 kg/ha. In short, it runs like this:
as §2

The subject of series [6] is velvetleaf (Abutilon theophtasti L.), At. The description is as above. Conditions: dosage 5 kg/ha. In short, it runs like this: as §2
In series [7] the test system is cocklebur (Xanthium strumarium L.), Xs. Described as above. The note with it: dosage 5 kg/ha. The gist of the method:
as §2

Series [8] concerns forxtail grass (Alopecurus aequalis var. amurensis Ohwi), Am. The description is as above. Conditions: foxtail grass, dosage 5 kg/ha. The gist of the method: as §2
In series [9] the test system is cleavers (Galium aparine L.), Ga. The series is described as follows: Test Example 4: herbicidal effect on upland weeds after emergence. The note with it: dosage 5 kg/ha; sprayed after emergence; judged 14 days after treatment. The gist of the method: (§3)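 Seeds sown in soil and covered. Plants raised to specified leaf stages. Agent with test compound at a prescribed concentration sprayed. Herbicidal effect and crop damage scored after 14 days as weed-killing rate.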

Series [10] has as its system barnyard grass (Echinochloa crus-galli Beauv.), Ec. The description is as above. Conditions: dosage 5 kg/ha; sprayed after emergence; judged 14 days after treatment. The gist of the method: as §3
In series [11] the test system is bird's eye speedwell (Veronica persica Poir.), Vp. The description is as above. Conditions: dosage 5 kg/ha; sprayed after emergence; judged 14 days after treatment. The gist of the method:
as §3

Series [12] relates to velvetleaf (Abutilon theophtasti L.), At. The description is as above. Conditions: dosage 5 kg/ha; sprayed after emergence; judged 14 days after treatment. In short, it runs like this: as §3
Series [13] has as its system cocklebur (Xanthium strumarium L.), Xs. The description is as above. Conditions: dosage 5 kg/ha; sprayed after emergence; judged 14 days after treatment. In short, it runs like this:
as §3

In series [14] the test system is forxtail grass (Alopecurus aequalis var. amurensis Ohwi), Am. The series is described as above. Conditions: dosage 5 kg/ha; sprayed after emergence; judged 14 days after treatment. The gist of the method: as §3
The subject of another series is wheat (Wh). Put plainly: Test Example 3: phytotoxicity to upland crop plants, treatment before emergence. The note with it: dosage 5 kg/ha. The gist of the method:
(§4)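 Phytotoxicity scores for soybean and wheat were assigned by a set criterion 14 days after a pre-emergence spray of a liquid preparation containing the test compound at a prescribed concentration.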

The subject of a further series is soybean plant (So). The series is described as above. Conditions: dosage 5 kg/ha. In short, it runs like this: as §4
A further series concerns soybean plant. Put plainly: Test Example 4: phytotoxicity to upland crop plants, treatment after emergence. The note with it: dosage 5 kg/ha, sprayed after emergence, judged 14 days after treatment. In short, it runs like this: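 Weeds, soybean and wheat were sown in soil-filled vats, covered with soil and grown to set leaf stages before a post-emergence spray of an agent containing the compound at a prescribed concentration. Weed-killing rate and crop phytotoxicity were assessed 14 days after treatment.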

In another series the test system is wheat. Described as above. Conditions: dosage 5 kg/ha, sprayed after emergence, judged 14 days after treatment. In short, it runs like this: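 Scores of weed-killing rate, with crop phytotoxicity, come from inspection 14 days after plants in soil vats, grown to specified leaf stages, are sprayed with a formulation holding the compound at a prescribed concentration.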

The test system of series [15] is monochoria (Monochoria vaginalis Presl). Put plainly: Test Example 2: herbicidal effect on paddy field weeds after emergence. The note with it: Dosage 5 kg/ha; one-leaved stage; 21 days after treatment. The gist of the method: (§5)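 Weeds in flooded paddy-soil pots were grown to the one-leaved stage, then the soil was treated with the compound solution at a set dosage.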

The subject of series [16] is barnyard grass (Echinochloa crus-galli Beauv.). The description is as above. The note with it: Dosage 5 kg/ha; one-leaved stage; 21 days after treatment. The gist of the method: as §5
The test system of series [17] is bulrush (Scirpus juncoides Roxb.). The description is as above. The note with it: Dosage 5 kg/ha; one-leaved stage; 21 days after treatment. In short, it runs like this:
as §5

Experimental findings from patent US6444617B1, “Fused-heterocycle dicarboxylic acid diamide derivatives or salts thereof, herbicide and usage thereof” (Nihon Nohyaku Co., Ltd., priority 1998, dated 2002) are described below.

Consider `CCCNC(=O)c1nc2scc(Br)c2cc1C(=O)Nc1c(CC)ccc(Cl)c1CC` [compound 814], for which the “Pre-emergence treatment Barnyard grass (herbicidal effect)” value (“Pre-emergence treatment Barnyard grass” below) in series [1] is 5 (Weed-killing rate is 100%.). Also, the “Pre-emergence treatment Bulrush (herbicidal effect)” value (“Pre-emergence treatment Bulrush” for short) in [2] is on record as 5 (Weed-killing rate is 100%.). For the same compound, the “Herbicidal effect Ga” value in series [3] and in [9] was 4 (Weed-killing rate is 90-99%.) each time. Besides, the “Herbicidal effect Ec” value in series [4] and in series [10] was 5 (Weed-killing rate is 100%.) throughout. The “Herbicidal effect Vp” value in series [5] and in series [11] was 5 (Weed-killing rate is 100%.) each time. In addition, the “Herbicidal effect At” value in series [6] and in series [12] was 5 (Weed-killing rate is 100%.) in each case. The “Herbicidal effect Xs” value in series [7] and in [13] was 4 (Weed-killing rate is 90-99%.) each time. Besides, the “Herbicidal effect Am” value in series [8] and in series [14] was 5 (Weed-killing rate is 100%.) in each case. Moreover, the “Phytotoxicity Wh” value in the series on wheat (Wh) and in the series with wheat was 4 (Crop-killing rate is 90-99%.) in each case. In addition, the “Phytotoxicity So” value in the series with soybean plant (So) and in the series on soybean plant was 3 (Crop-killing rate is 70-89%.) in each case. For the same compound, in [15], the “Post-emergence treatment Monochoria (herbicidal effect)” value (shortened to “Post-emergence treatment Monochoria”) is listed as 5 (Weed-killing rate is 100%.). Further, the “Post-emergence treatment Barnyard grass (herbicidal effect)” value (“Post-emergence treatment Barnyard grass” below) in [16] is reported as 5 (Weed-killing rate is 100%.). Further, the “Post-emergence treatment Bulrush (herbicidal effect)” value (from here on “Post-emergence treatment Bulrush”) in series [17] is reported as 5 (Weed-killing rate is 100%.).

For `CCCNC(=O)c1nc2c(ccn2C)cc1C(=O)Nc1c(CC)ccc(Cl)c1CC` [compound 824], the “Pre-emergence treatment Barnyard grass” value in series [1] is on record as 5 (Weed-killing rate is 100%.). Also, the “Pre-emergence treatment Bulrush” value in [2] was 5 (Weed-killing rate is 100%.). Moreover, the “Herbicidal effect Ga” value in [3] and in series [9] was 5 (Weed-killing rate is 100%.) each time. For the same compound, the “Herbicidal effect Ec” value in [4] and in [10] was 5 (Weed-killing rate is 100%.) in each case. For the same compound, the “Herbicidal effect Vp” value in series [5] and in series [11] was 5 (Weed-killing rate is 100%.) each time. Moreover, the “Herbicidal effect At” value in [6] and in series [12] was 5 (Weed-killing rate is 100%.) throughout. Besides, the “Herbicidal effect Xs” value in series [7] and in [13] was 5 (Weed-killing rate is 100%.) each time. Further, the “Herbicidal effect Am” value in [8] and in [14] was 5 (Weed-killing rate is 100%.) each time. Also, the “Phytotoxicity Wh” value with wheat (Wh) and in the series on wheat was 5 (Crop-killing rate is 100%.) each time. The “Phytotoxicity So” value with soybean plant (So) is on record as 5 (Crop-killing rate is 100%.); in the series with soybean plant, 4 (Crop-killing rate is 90-99%.). Further, in series [15], the “Post-emergence treatment Monochoria” value is given as 5 (Weed-killing rate is 100%.). In series [16], the “Post-emergence treatment Barnyard grass” value was 5 (Weed-killing rate is 100%.). The “Post-emergence treatment Bulrush” value in series [17] is 5 (Weed-killing rate is 100%.).

With `CCCNC(=O)c1nc2cscc2cc1C(=O)Nc1c(CC)ccc(Cl)c1CC` [compound 836], the “Pre-emergence treatment Barnyard grass” value in [1] is 5 (Weed-killing rate is 100%.). The “Pre-emergence treatment Bulrush” value in [2] is on record as 5 (Weed-killing rate is 100%.). Moreover, the “Herbicidal effect Ga” value in series [3] and in [9] was 5 (Weed-killing rate is 100%.) in each case. Besides, the “Herbicidal effect Ec” value in [4] and in series [10] was 5 (Weed-killing rate is 100%.) each time. The “Herbicidal effect Vp” value in [5] and in series [11] was 5 (Weed-killing rate is 100%.) in each case. In addition, the “Herbicidal effect At” value in series [6] and in series [12] was 5 (Weed-killing rate is 100%.) in each case. Also, the “Herbicidal effect Xs” value in [7] and in [13] was 5 (Weed-killing rate is 100%.) in each case. Further, the “Herbicidal effect Am” value in series [8] and in series [14] was 5 (Weed-killing rate is 100%.) in each case. In addition, the “Phytotoxicity Wh” value in the series with wheat (Wh) and in the series on wheat was 5 (Crop-killing rate is 100%.) each time. Besides, the “Phytotoxicity So” value with soybean plant (So) and in the series on soybean plant was 4 (Crop-killing rate is 90-99%.) throughout. Also, the “Post-emergence treatment Monochoria” value in series [15] is given as 5 (Weed-killing rate is 100%.). In addition, in [16], the “Post-emergence treatment Barnyard grass” value was 5 (Weed-killing rate is 100%.). The “Post-emergence treatment Bulrush” value in [17] is reported as 5 (Weed-killing rate is 100%.).

As for `CCCNC(=O)c1nc2ccoc2cc1C(=O)Nc1c(CC)ccc(Cl)c1CC` [compound 847], the “Pre-emergence treatment Barnyard grass” value in series [1] is given as 5 (Weed-killing rate is 100%.). Further, the “Pre-emergence treatment Bulrush” value in series [2] is 5 (Weed-killing rate is 100%.). For the same compound, the “Herbicidal effect Ga” value in [3] and in series [9] was 5 (Weed-killing rate is 100%.) throughout. Moreover, the “Herbicidal effect Ec” value in series [4] and in [10] was 5 (Weed-killing rate is 100%.) each time. Also, the “Herbicidal effect Vp” value in series [5] and in series [11] was 5 (Weed-killing rate is 100%.) in each case. For the same compound, the “Herbicidal effect At” value in series [6] and in [12] was 5 (Weed-killing rate is 100%.) each time. For the same compound, the “Herbicidal effect Xs” value in series [7] and in [13] was 5 (Weed-killing rate is 100%.) in each case. Further, the “Herbicidal effect Am” value in [8] and in [14] was 5 (Weed-killing rate is 100%.) each time. In addition, the “Phytotoxicity Wh” value in the series with wheat (Wh) and in the series with wheat was 5 (Crop-killing rate is 100%.) throughout. For the same compound, the “Phytotoxicity So” value with soybean plant (So) and in the series on soybean plant was 4 (Crop-killing rate is 90-99%.) each time. The “Post-emergence treatment Monochoria” value in series [15] is reported as 5 (Weed-killing rate is 100%.). Further, the “Post-emergence treatment Barnyard grass” value in [16] is recorded as 5 (Weed-killing rate is 100%.). Also, the “Post-emergence treatment Bulrush” value in [17] is 5 (Weed-killing rate is 100%.).
